Results: patent US9055743B2, “Alpha, beta-unsaturated imines” (BAYER INTELLECTUAL PROPERTY GMBH, priority 2010, dated 2015)

Key:
Type in all cases: in vivo
[1] = tested on: Boophilus microplus; test: Boophilus microplus test (BOOPMI injection); settings: 20 μg/animal, injection into the abdomen, after 7 days
Method: Boophilus microplus Test (BOOPMI Injection)
(§1) Solvent: Dimethyl Sulphoxide
To produce a suitable preparation of active compound, 10 mg of active compound are mixed with 0.5 ml of solvent and the concentrate is diluted with solvent to the desired concentration. The solution of active compound is injected into the abdomen (Boophilus microplus), and the animals are transferred into dishes and kept in a climatized room. The activity is assessed by […] of fertile eggs.
After 7 days, the effect in % is determined 100% means that none of the ticks has laid any fertile eggs.

[2] = tested on: Boophilus microplus strain Parkhurst, SP-resistant; test: Boophilus microplus test (DIP); settings: 100 ppm, after 7 days
Method: Boophilus microplus Test (DIP) Test Animals: Adult Fat Females of the Boophilus microplus Strain Parkhurst—SP-Resistant) Solvent: Dimethyl Sulphoxide
10 mg of active compound are dissolved in 0.5 ml of dimethyl sulphoxide. To produce a suitable formulation, the active compound solution is diluted with water to the particular desired concentration.
This active compound preparation is pipetted into tubes. 8-10 ticks are transferred into a further tube provided with holes. The tube is dipped into the active compound preparation, with all the ticks being wetted completely. After the liquid has run off, the ticks are transferred to filter discs in plastic dishes and kept in a climatized room. After 7 days, the activity is checked for deposition of fertile eggs. Eggs whose fertility is not visible from the outside are kept in glass tubes in a climatized cupboard until the larvae have hatched. An activity of 100% means that no tick has laid fertile eggs.

[3] = tested on: Ctenocephalides felis; test: Ctenocephalides felis oral test (CTECFE); settings: 100 ppm in citrated cattle blood, after two days
Method: Ctenocephalides Felis Oral Test (CTECFE)
Solvent: 1 Part by Weight of Dimethyl Sulphoxide
To produce a suitable preparation of active compound, 10 mg of active compound are mixed with 0.5 ml of dimethyl sulphoxide. Part of the concentrate is diluted with citrated cattle blood, and the desired concentration is prepared.
About 20 unfed adult fleas (Ctenocephalides felis) are placed into a chamber which is closed at the top and bottom with gauze. A metal cylinder whose bottom end is closed with parafilm is placed onto the chamber. The cylinder contains the blood/active compound preparation, which can be taken up by the fleas through the parafilm membrane. After two days, the kill in % is determined 100% means that all fleas have been killed; 0% means that none of the fleas have been killed.

[4] = tested on: Lucilia cuprina larvae; test: Lucilia cuprina test (LUCICU); settings: 100 ppm, after 2 days
Method: Lucilia cuprina Test (LUCICU)
as §1
To produce a suitable preparation of active compound, 10 mg of active compound are mixed with 0.5 ml of dimethyl sulphoxide and the concentrate is diluted with water to the desired concentration. Vessels containing horsemeat treated with the active compound preparation of the desired concentration are populated with about 20 Lucilia cuprina larvae.
After 2 days, the kill in % is determined. 100% means that all larvae have been killed; 0% means that none of the larvae have been killed.

[5] = tested on: cat fleas (Ctenocephalides felis, fully sensitive laboratory strain); test: Contact test against fleas in-vitro (CTECFE contact); settings: 500 g/ha, after 48 h
Outline: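 Test tubes coated from acetone solutions by rotation, top concentration 500 g/ha (500 μg/dm^2) on tube surface, serial 1:5 dilutions. 10-20 CO2-anesthetized adult fleas held at room temperature for 24 and 48 h. Activity scored versus acetone control: knock-down or death of all fleas = 100%.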

[6] = tested on: larvae of the mustard beetle (Phaedon cochleariae); test: Phaedon test (PHAECO spray treatment); settings: 500 g/ha, spray, after 7 days
Outline: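 Mustard beetle larvae were placed on dried Brassica pekinensis leaf discs previously spray-treated with test compound; formulation used acetone and dimethylformamide solvents plus alkylaryl polyglycol ether emulsifier, diluted with emulsifier-containing water.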

[7] = tested on: caterpillars of the army worm (Spodoptera frugiperda); test: Spodoptera frugiperda test (SPODFR spray treatment); settings: 500 g/ha, spray, after 7 days
Outline: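 Activity in % read 7 days after armyworm caterpillars were placed on dried, sprayed Zea mays leaf discs; 0% means none killed. Spray prepared from an acetone/DMF concentrate with emulsifier, diluted with emulsifier-containing water.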

[8] = tested on: green peach aphid (Myzus persicae); test: Myzus test (MYZUPE spray treatment); settings: 500 g/ha, spray, after 6 days
Outline: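 Activity read as % aphid kill 6 days after treatment (0% = none killed). Compound formulated in acetone and dimethylformamide plus alkylaryl polyglycol ether, diluted in water and sprayed onto infested Brassica pekinensis leaf discs.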

[9] = tested on: greenhouse red spider mite (Tetranychus urticae); test: Tetranychus test; OP-resistant (TETRUR spray treatment); settings: 500 g/ha, spray, after 6 days
Outline: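 Activity, as % of mites killed (0–100%), was assessed 6 days after spraying. The spray was compound formulated with acetone, DMF and emulsifier, then diluted in water. It was applied to Phaseolus vulgaris leaf discs carrying every life stage of an OP-resistant spider mite strain.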

[10] = tested on: Anopheles gambiae (homocygus kdr); test: Anopheles test (ANPHGB surface treatment); settings: for knock-down activity: 100 mg/m^2, two hours after contact, exposition 30 minutes
Outline: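 Adult mosquitoes held 30 min on a glazed tile treated with a dried 2 mg/ml acetone solution of compound. Mortality scored at 24 h (100% = all killed), knock-down percentage at 2 h post-contact.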

[11] = tested on: Musca domestica; test: Musca domestica test (MUSCDO); settings: 100 ppm, after 2 days
Method: Musca domestica Test (MUSCDO)
as §1
To produce a suitable preparation of active compound, 10 mg of active compound are mixed with 0.5 ml of dimethyl sulphoxide and the concentrate is diluted with water to the desired concentration. Vessels containing a sponge treated with the active compound preparation of the desired concentration are populated with adult Musca domestica.
After 2 days, the kill in % is determined 100% means that all flies have been killed; 0% means that none of the flies have been killed.

[12] = tested on: Aedes aegypti; test: Aedes test (AEDSAE surface treatment); settings: for knock-down activity: 100 mg/m^2, two hours after contact, exposition 30 minutes
Outline: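 Adults were held 30 minutes on glazed tiles carrying a dried acetone deposit of compound (2 mg/ml solution). Readouts: percent knock-down 2 h after contact, percent mortality 24 h after contact, where 0% means no mosquitoes killed.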

Row | SMILES | activity (100% = none of the ticks has laid any fertile eggs) [1] | activity (100% = no tick has laid fertile eggs) [2] | activity (kill in %) [3] | activity (kill in %) [4] | activity against cat fleas [5] | activity (beetle larvae killed) [6] | activity (caterpillars killed) [7] | activity (aphids killed) [8] | activity (spider mites killed) [9] | knock-down activity [10] | activity (kill in %) [11] | knock-down activity [12] | pest or weed control at 500 g/ha ([6]; Phaedon cochleariae, 168 h, read-out: activity (beetle larvae killed)) | pest or weed control at 500 g/ha ([7]; Spodoptera frugiperda, 168 h, read-out: activity (caterpillars killed)) | pest or weed control at 500 g/ha ([8]; Myzus persicae, 144 h, read-out: activity (aphids killed)) | pest or weed control at 500 g/ha ([9]; Tetranychus urticae, 144 h, read-out: activity (spider mites killed)) | mortality at 100 mg/m2 ([10]; Anopheles gambiae, read-out: activity (mortality in %)) | mortality at 100 mg/m2 ([12]; Aedes aegypti, read-out: activity (mortality in %))
1 | Cc1ccc(N=C2C(=CSc3ccccc3)CSc3ccccc32)cc1 [Example 1-4] | 100% | 100% | 100% | 100% | 100% | 100% | 100% | 100% | 100% | 100% | – | – | – | – | – | – | – | –
2 | CCC1C(=CSc2ccc(F)cc2)C(=Nc2ccc(C)cc2)c2ccccc21 (mixture of isomers) [Example 1-37] | 100% | – | 100% | 100% | 100% | 100% | 100% | 100% | 100% | – | 90% | – | – | – | – | – | – | –
3 | Cc1ccc(N=C2C(=CSc3ccc(F)cc3)CCc3occc32)cc1 [Example 1-29] | – | 100% | 80% | 100% | 100% | 100% | 100% | 100% | 100% | – | 100% | 90% | – | – | – | – | – | –
4 | Cc1ccc(N=C2C(=CSc3ccc(F)cc3)CCc3sccc32)cc1 (mixture of isomers) [Example 1-26] | 100% | 100% | 95% | 100% | 100% | 100% | 100% | 100% | 100% | – | 100% | – | – | – | – | – | – | –
5 | Cc1ccc(N=C2C(=CSc3ccc(Cl)cc3)CCc3ccccc32)cc1 [Example 1-59] | 100% | 100% | 100% | 90% | 100% | 100% | 100% | 100% | 100% | – | – | – | – | – | – | – | – | –
6 | Cc1ccc(N=C2C(=CSc3cccc(Cl)c3)CCc3ccccc32)cc1 [Example 1-62] | 100% | 100% | 100% | 80% | 100% | 100% | 100% | 100% | 100% | 100% | – | – | – | – | – | – | – | –
7 | Cc1ccc(N=C2C(=CSc3ccc(F)cc3)CCc3c(F)cccc32)cc1 (mixture of isomers) [Example 1-34] | 100% | 80% | 100% | 100% | 100% | 100% | 100% | – | – | 100% | – | 100% | – | – | – | – | – | –
8 | Cc1ccc(N=C2C(=CSc3ccc(F)cc3)CCc3cc(F)cc(F)c32)cc1 (mixture of isomers) [Example 1-33] | 100% | 100% | 95% | 100% | 100% | 100% | 100% | 80% | – | – | 80% | – | – | – | – | – | – | –
9 | Cc1ccc(N=C2/C(=C/Sc3ccccc3)CCc3ccccc32)cc1 [Example 1-1] | 100% | 100% | 80% | 100% | 100% | – | – | – | – | 100% | – | 100% | 100% | 100% | 100% | 100% | 100% | 100%
10 | COc1ccc(N=C2C(=CSc3ccccc3)CCc3ccccc32)cc1 [Example 1-10] | 100% | – | 80% | 90% | 100% | 100% | 100% | – | 100% | 95% | 100% | – | – | – | – | – | – | –
